What is called Ki is a dissociation constant, usually derived from enzyme kinetics or from competition with a known ligand. A lower Ki goes with tighter binding.

A value given as a limit tells only on which side of the number the result lay.

The record followed here is ChEMBL document CHEMBL1145868, “Small, low nanomolar, noncovalent thrombin inhibitors lacking a group to fill the 'distal binding pocket'” (Bioorg Med Chem Lett, 2003).

The species entered for assay [1] is Homo sapiens. Put plainly: Concentration required to double the human activated partial thromboplastin time in human plasma. The class given is functional.
Another assay addresses Prothrombin (Homo sapiens, UniProt P00734). Put plainly: Inhibition of thrombin in human plasma. It counts as cell-free.
The next assay concerns the target Trypsin (Homo sapiens, UniProt P07477+P07478+P35030). Briefly: Inhibition of trypsin in human plasma. The class given is cell-free.
The species named for assay [2] is Homo sapiens. Put plainly: Protein binding affinity in human plasma, expressed as percent unbound (free). It counts as functional.

`Cc1ccc(NS(=O)(=O)Cc2ccccc2)c(=O)n1CC(=O)NCc1cc(Cl)ccc1Cl`: in the assay listed under Homo sapiens [1], the Concentration is 2.7 µM. The Ki on Prothrombin worked out at 24 nM; on Trypsin, 100000 nM.
Regarding `Cc1nc(N)ccc1CNC(=O)Cn1c(C)cnc(N)c1=O`, the Ki on Prothrombin was 900 nM; at Trypsin, 23000 nM.
On to `Cc1nc(N)ccc1CNC(=O)Cn1c(C)cc(C(F)(F)F)c(N)c1=O`, for which the values for the Ki on Prothrombin and on Trypsin were 340 nM and 20000 nM, respectively.
In the assay filed under Homo sapiens [1], `Cc1cc(C(F)(F)F)c(N)c(=O)n1CC(=O)NCc1cc(Cl)ccc1OCC(=O)NCCN(C)C` gave a Concentration of 1.3 µM. The Ki on Prothrombin was 18 nM; at Trypsin, 14000 nM.
On to `CCNC(=O)COc1ccc(Cl)cc1CNC(=O)Cn1c(C)ccc(NS(=O)(=O)Cc2ccccc2)c1=O`, for which the Concentration in the assay listed under Homo sapiens [1] was found to be 0.79 µM. Also, the Ki at Prothrombin is 0.04 nM; at Trypsin, 2000 nM.
In the assay listed under Homo sapiens [1], `CCNC(=O)COc1ccc(Cl)cc1CNC(=O)Cn1c(C)cnc(N)c1=O` displayed a Concentration of 1.6 µM. The figures for the inhibition constant (Ki) on Prothrombin and at Trypsin were 12 nM and 7200 nM, respectively. For the same compound, the Unbound in the assay filed under Homo sapiens [2] came to 20%.
With `CCNC(=O)COc1ccc(Cl)cc1CNC(=O)Cn1c(C)cc(C(F)(F)F)c(N)c1=O`, the Concentration in the assay listed under Homo sapiens [1] was determined as 2.1 µM. Further, the inhibition constant Ki was 8.5 nM at Prothrombin and 10000 nM at Trypsin.
In turn, `CNC(=O)COc1ccc(Cl)cc1CNC(=O)Cn1c(C)cc(C(F)(F)F)c(N)c1=O` showed a Concentration in the assay filed under Homo sapiens [1] of 2.5 µM. Besides, the Ki at Prothrombin worked out at 15 nM; at Trypsin, 7100 nM.
On to `CCNC(=O)COc1ccc(Cl)cc1CNC(=O)Cn1c(C)cnc(NCCc2ccccc2)c1=O`, for which the Concentration in the assay listed under Homo sapiens [1] amounted to 1.2 µM. Also, the values for the Ki at Prothrombin and at Trypsin were 0.07 nM and 1000 nM, respectively. The same compound returned an Unbound in the assay listed under Homo sapiens [2] of 1%.
On to `Cc1nc(N)ccc1CNC(=O)Cn1c(C)cnc(NCCc2ccccc2)c1=O` [L-375378], for which the Concentration in the assay listed under Homo sapiens [1] was determined as 0.41 µM. This compound showed an Unbound in the assay listed under Homo sapiens [2] of 6%. For the same compound, the Ki on Trypsin is recorded as 1800 nM.
Regarding `Cc1ccc(NS(=O)(=O)Cc2ccccc2)c(=O)n1CC(=O)NCc1cccc(Cl)c1`, the Concentration in the assay listed under Homo sapiens [1] came out at 2.8 µM. Moreover, the values for the Ki at Prothrombin and at Trypsin were 7 nM and 20000 nM, respectively.
Compound `CCNC(=O)COc1ccc(Cl)cc1CNC(=O)[C@@H]1CCCN1C(=O)[C@H](N)C1CCCCC1` registered a Concentration in the assay listed under Homo sapiens [1] of 0.41 µM. For the same compound, the Unbound in the assay listed under Homo sapiens [2] came to 15%. Further, at Trypsin, the Ki stood at 23000 nM.
On to `Cc1cc(C(F)(F)F)c(N)c(=O)n1CC(=O)NCc1cc(Cl)ccc1OCC(=O)N(C)C`, for which the Ki at Trypsin is listed as more than 100000 nM.
Take `N[C@@H](C(=O)N1CCC[C@H]1C(=O)NCc1cc(Cl)ccc1Cl)C1CCCCC1`: the Concentration in the assay filed under Homo sapiens [1] turned out to be 0.95 µM. Moreover, the Unbound in the assay filed under Homo sapiens [2] was 4%. The compound further gave a Ki at Trypsin of 29000 nM.
Consider `Cc1cc(C(F)(F)F)c(N)c(=O)n1CC(=O)NCc1cc(Cl)ccc1OCC(=O)NCCCN(C)C`, for which the Concentration in the assay filed under Homo sapiens [1] was determined as 0.7 µM. Moreover, the Ki came out at 7.4 nM at Prothrombin and 11000 nM at Trypsin. Also, the Unbound in the assay listed under Homo sapiens [2] is 18%.
